Results taken from US11529318B2, “Devices and methods for local delivery of tacrolimus” (UNIVERSITY OF PITTSBURGH—OF THE COMMONWEALTH SYSTEM OF …, priority 2017, dated 2022).

Experiments:
[1] = in vivo; parameters: species or system Sprague-Dawley rats; conditions: Sprague-Dawley, rat, 2.2 mg/kg/day, tacrolimus concentration
Experimental: (§1) Optic nerve ischemia and PEUU-Tac matrix application. Animals were anesthetized by intraperitoneal injection of 45:10 mg/kg ketamine/xylazine cocktail. Once anaesthetized, the optic nerve was exposed by making a small incision and then creating a nearly bloodless plane through the conjunctiva by blunt dissection with #5 forceps. The surrounding muscle and connective tissue around the optic nerve were then gently separated until the optic nerve was exposed. Using a Yasagril aneurysm clip, the right optic nerve was clamped ˜2 mm behind the globe for 10 seconds (Sarikcioglu, Demir et al. 2007). After removing the clip, ophthalmic artery integrity was confirmed by visualization. For some animals, the optic nerve sheath was fenestrated at the injury site by making an 1-2 mm incision. For animals receiving PEUU-Tac, a 1×5 mm section cut from a 10 mg PEUU-Tac matrix was sutured around the injury site and then secured by suturing to the outer sheath. After each optic nerve procedure, the conjunctiva was sutured and antibiotic ointment (Gentamicin, Bausch & Lomb, Tampa, Fla.) was applied to the eye. In total, twenty-eight animals received acute optic nerve ischemia to the right optic nerve with or without a PEUU-Tac wrap. The experimental groups were as follows: • (1) Five animals received a 1 mm×5 mm section of a 10 mg PEUU-Tac sheet sutured around the nerve. • (2) Five animals received a 1 mm×5 mm section of a 10 mg PEUU-Tac matrix implanted subcutaneously in the lower right quadrant of the abdomen. • (3) Five animals received daily intraperitoneal injections of tacrolimus (2.2 mg/kg/day) for 14 days with the first injection administered immediately after ischemic injury. • (4) Five animals were used as a sham control.
Blood and tissue collection. Twenty-four hours after injury, blood samples were drawn from all four groups via the tail vein. Four of the eight animals treated with PEUU-Tac were sacrificed at 24 hours and sixteen animals were sacrificed at 14 days. Blood, both retinas and both optic nerves were collected from all animals.
Tacrolimus tissue extraction and reconstitution in blood. Tissue (retina and optic nerve) samples were weighted and homogenized with organic solvent (methanol, 100%) using Mini-BeadBeater-1 sonicator for cell disruption and left over night to assure complete tacrolimus extraction. The homogenate was centrifuged at 2100±100 rpm for 10 min. The methanol was transferred to a microcentrifuge tube and evaporated using a sample concentrator. The drug residue was reconstituted with 1 mL of blood. Tacrolimus in the blood was analyzed as described below and tissue drug concentration was expressed in ng/g of tissue weight.
Quantification of tacrolimus in blood by HPLC-tandem mass spectrometry. […]

[2] = Tacrolimus concentration in blood, optic nerve ischemia model (Example 1); format: in vivo, Sprague-Dawley rats; conditions: Sprague-Dawley, rat, whole blood, ip, systemic administration (i.p. 2.2 mg/kg/day)
Experimental: as §1, with “In total, twenty-eight animals received acute optic nerve ischemia to the right optic nerve with or without a PEUU-Tac wrap. The experimental groups were as follows: • (1) Five animals received a 1 mm×5 mm section of a 10 mg PEUU-Tac sheet sutured around the nerve. • (2) Five animals received a 1 mm×5 mm section of a 10 mg PEUU-Tac matrix implanted subcutaneously in the lower right quadrant of the abdomen. • (3) Five animals received daily intraperitoneal injections of tacrolimus (2.2 mg/kg/day) for 14 days with the first injection administered immediately after ischemic injury. • (4) Five animals were used as a sham control.” left out
Quantification of tacrolimus in blood by HPLC-tandem mass spectrometry. […] Monitored parent to product mass transitions for tacrolimus and ascomycin were 821.63→768.33 and 809→756 m/z, respectively.

[3] = test system: glial fibrillary acidic protein (GFAP) expression; experiment: GFAP immunohistochemistry of optic nerve after optic nerve crush; format: in vivo, Sprague-Dawley rats; conditions: 14 days after optic nerve crush, systemic tacrolimus treatment, compared to uncrushed controls
Experimental: as §1, with “wrap.” for “wrap. The experimental groups were as follows: • (1) Five animals received a 1 mm×5 mm section of a 10 mg PEUU-Tac sheet sutured around the nerve. • (2) Five animals received a 1 mm×5 mm section of a 10 mg PEUU-Tac matrix implanted subcutaneously in the lower right quadrant of the abdomen. • (3) Five animals received daily intraperitoneal injections of tacrolimus (2.2 mg/kg/day) for 14 days with the first injection administered immediately after ischemic injury. • (4) Five animals were used as a sham control.”
Immunohistochemistry. […]

[4] = reference range; cited from earlier work

concentration at 14 days ([1]; left optic nerve): 1700 ng/g | concentration at 14 days ([1]; left retina): 618 ng/g | concentration at 14 days ([1]; right optic nerve): 2200 ng/g | concentration at 14 days ([1]; right retina): 530 ng/g | concentration at 24 h ([2]; 24 hour): 7.05 ± 1.09 ng/mL | concentration at 14 days ([2]; 14 days): 27.7 ± 3.53 ng/mL
SMILES: C=CC[C@@H]1/C=C(\C)C[C@H](C)C[C@H](OC)[C@H]2O[C@@](O)(C(=O)C(=O)N3CCCC[C@H]3C(=O)O[C@H](/C(C)=C/[C@@H]3CC[C@@H](O)[C@H](OC)C3)[C@H](C)[C@@H](O)CC1=O)[C@H](C)C[C@@H]2OC [tacrolimus]
GFAP expression in optic nerve [3]: did not cause significant GFAP expression | typical therapeutic trough levels (blood) [4]: 10 to 20 ng/g
